# Measured values from patent US8980917B2, “Methods for treating or preventing brain infections” (The Johns Hopkins University, priority 2008, dated 2015).
# “Also recorded” adds a separate entry of the source.
# Experiments:
# E. coli K1 strain RS218 [1] = assay: Mouse model of experimental hematogenous E. coli meningitis (cPLA2α-/- and wild type BALB/c mice); assay type: in vivo; conditions: i.v. 1.2 μg/mouse in 50 μl PBS 30 mins before bacterial injection
# Description: cPLA2α−/− and wild type mice, either male or female, […] that had been backcrossed on the BALB/c strain for >10 generations were used^14. All procedures and handling techniques were approved by The Johns Hopkins Animal Care and Use Committee.
# Each mouse received 1×10^7 CFU of E. coli K1 strain RS218 in 100 μl PBS via the tail vein. One hour later, mouse chest was cut open, and blood from right ventricle was collected and plated for bacteria counts, which were expressed as CFUs/ml of blood. The mouse was then perfused with a mammalian Ringer's solution by transcardiac perfusion through a 23-gauge needle inserted into the left ventricle of the heart under the perfusion pressure of about 100 mmHg. The perfusate exited through a cut in the right atrium. […] The brains were removed, weighed and homogenized in 2 ml RPMI followed by plating for bacterial counts, which were expressed as CFUs/gm. Since E. coli K1 penetration into the brain is shown to depend on the magnitude of bacteremia^5,7, bacterial penetration into the brain was also expressed as [(brain CFUs per gm)/(blood CFUs per ml)]×100. Kidneys and spleens were also removed, homogenized and plated for determination of bacterial counts, which were expressed as CFUs/gm. […]
# blood-brain barrier = assay: Blood-brain barrier permeability by Evans blue dye extravasation into the brain; assay type: in vivo, mouse; conditions: cPLA2α-/- mice
# C. neoformans = assay: Mouse model of C. neoformans meningitis/meningoencephalitis following intravenous inoculation; assay type: in vivo; conditions: strain B-3501A; cPLA2α-/- mice; i.v. 1.2 μg/mouse 30 mins before C. neoformans injection; 24 hours
# Description: The mouse model of Cryptococcal meningitis/meningoencephalitis following intravenous inoculation was used to determine the hematogenous dissemination of C. neoformans to the brain as described previously (7, 8). C. neoformans strains grown on 1% yeast extracts, 2% peptone and 2% dextrose (YPD) agar were suspended in phosphate-buffered saline (PBS, pH 7.4) and counted with a hemocytometer to determine the yeast cell number. This suspension was also cultured on YPD agar plates, and colonies (CFUs) counted after 3 days of incubation at 30° C. as previously described (11). The inoculum size was confirmed by CFUs.
# Briefly, female BALB/c mice received 10^5 yeast cells via the tail vein. 24 hours later, the blood specimens were obtained for determination of CFUs, and the animals perfused with sterile Ringer's solution until the perfused solution became colorless. The brains were removed, weighed, homogenized and cultured on YPD agar for determination of CFUs.
# cPLA2α. We examined the role of host cPLA2α in C. neoforman strain B-3501A penetration into the brain by studying cPLA2α−/− mice as compared to their strain-matched wild type mice. Each animal received 10^5 yeast cells via the tail vein. 24 hours later, the blood specimens were obtained for determination of CFUs, and the animals perfused with sterile Ringer's solution until the perfused solution became colorless. […]
# E. coli K1 strain RS218 [2] = assay: Infant rat model of experimental hematogenous E. coli meningitis; assay type: in vivo; conditions: 5-day-old rats, 9 animals; i.p. 50 μg/10 gm one hour before bacteria; p < 0.001 by Fisher's exact test
# Description: Experimental hematogenous E. coli meningitis was induced in 5-day old rats as previously described (9, 10, 14, 28). Briefly, outbred, specific-pathogen-free pregnant Sprague-Dawley rats with timed conception were purchased from Charles River Breeding laboratory (Wilmington, Mass.). The rats delivered in our vivarium 5 to 7 days after arrival. At 5 days of age, all members of each litter were randomly divided into two groups, to receive intraperitoneally montelukast (50 μg/10 gm of weight in 50 μl PBS) or vehicle control (3.3% DMSO in 50 μl PBS). One hour later, each animal received 1×10^7 CFU of E. coli K1 strain RS218 via intracardiac injection. At one hour after bacterial injection, blood and CSF specimens were obtained as described previously (9, 10, 14, 28) for quantitative cultures. The development of E. coli meningitis (defined as positive CSF cultures) was compared between the two groups of animals.
# We also examined one of the CysLT1 antagonists for its effect on E. coli K1 penetration into the brain in our well-characterized infant rat model of experimental hematogenous E. coli meningitis (9, 10, 14, 28). At 5 days of age, all members of each litter were randomly divided to receive intraperitoneally montelukast or vehicle control. […] At one hour after bacterial inoculation, blood and cerebrospinal fluid (CSF) specimens were obtained for quantitative cultures.
# HBMEC monolayers = assay: Integrity of HBMEC monolayers by TEER before and after transcytosis assays; assay type: cell-based, human; conditions: at 50 μM
# Text: We also examined the effect of C. neoformans traversal on the HBMEC monolayer integrity, as measured by passive diffusion of ^3H-inulin and TEER at the end of the transcytosis experiment as described previously (7).
# [3] = developed for asthma; cited from earlier work
Compound,E. coli K1 penetration into the brain (brain CFU/gm and percent of brain CFU/blood CFU) (E. coli K1 strain RS218 [1]),blood-brain barrier permeability (Evans blue extravasation into the brain) (blood-brain barrier; 1.2 μg i.v. 30 min before E. coli RS218 injection),blood-brain barrier permeability (Evans blue extravasation into the brain) (blood-brain barrier; 1.2 μg/mouse i.v. 30 mins before C. neoformans injection),C. neoformans penetration into the brain (CFU/gm) (C. neoformans),% of animals with meningitis (positive CSF cultures) (E. coli K1 strain RS218 [2]),No. of animals with meningitis (positive CSF cultures) (E. coli K1 strain RS218 [2]),integrity of the HBMEC monolayers (TEER) (HBMEC monolayers),safety and tolerability in clinical trials [3]
"CCCCC/C=C\C/C=C\C/C=C\C/C=C\CCCC(=O)O [arachidonic acid, Arachidonic acid]",significantly enhanced E. coli K1 penetration into the brain to the level observed in the wild type mice,no significantly increased extravasation of intravenously administered Evans blue dye into the brain; also recorded: did not affect the blood-brain barrier permeability,not accompanied by any change in the blood-brain barrier permeability,significantly enhanced C. neoformans penetration into the brain to the level observed in the wild type mice,–,–,–,–
CC(C)(O)c1ccccc1CC[C@@H](SCC1(CC(=O)O)CC1)c1cccc(/C=C/c2ccc3ccc(Cl)cc3n2)c1 [montelukast],–,–,–,–,22%,2,did not affect the integrity of the HBMEC monolayers,safe and well tolerated
